Measured values as given in patent US7847065B2, “CXADRL1 polypeptides relating to human cancers” (Oncotherapy Science, Inc., priority 2002, dated 2010).
Ends that are not written are not given here.

Key:
[1] = system: WiDR
Description: (§1) Target cells were labeled with 100 μCi of Na2^51CrO4 (Perkin Elmer Life Sciences) for 1 h at 37° C. in a CO2 incubator. When peptide-pulsed targets were used, target cells were incubated with the addition of 20 μg/ml of the peptide for 16 h at 37° C. before the labeling with Na2^51CrO4. Target cells were rinsed and mixed with effectors at a final volume of 0.2 ml in round-bottom microtiter plates. The plates were centrifuged (4 minutes at 800×g) to increase cell-to-cell contact and placed in a CO2 incubator at 37° C. After 4 h of incubation, 0.1 ml of the supernatant was collected from each well and the radioactivity was determined with a gamma counter. In case of evaluating cytotoxicity against target cells that endogenously express RNF43, CXADRL1, or GCUD1, the cytolytic activity was tested in the presence of a 30-fold excess of unlabeled K562 cells to reduce any non-specific lysis due to NK-like effectors. […]
(§2) The percentage of specific cytotoxicity was determined by calculating the percentage of specific ^51Cr-release by the following formula: {(cpm of the test sample release−cpm of the spontaneous release)/(cpm of the maximum release−cpm of the spontaneous release)}×100. Spontaneous release was determined by incubating the target cells alone in the absence of effectors, and the maximum release was obtained by incubating the targets with 1N HCl. […]

[2] = system: HT29
Description: (§3) Target cells were labeled with 100 μCi of Na2^51CrO4 (Perkin Elmer Life Sciences) for 1 h at 37° C. in a CO2 incubator. When peptide-pulsed targets were used, target cells were incubated with the addition of 20 μg/ml of the peptide for 16 h at 37° C. before the labeling with Na2^51CrO4. Target cells were rinsed and mixed with effectors at a final volume of 0.2 ml in round-bottom microtiter plates. The plates were centrifuged (4 minutes at 800×g) to increase cell-to-cell contact and placed in a CO2 incubator at 37° C. After 4 h of incubation, 0.1 ml of the supernatant was collected from each well and the radioactivity was determined with a gamma counter. In case of evaluating cytotoxicity against target cells that endogenously express RNF43, CXADRL1, or GCUD1, the cytolytic activity was tested in the presence of a 30-fold excess of unlabeled K562 cells to reduce any non-specific lysis due to NK-like effectors. […] The MHC restriction was examined by blocking assay, measuring the inhibition of the cytotoxicity with anti-HLA-class I (W6/32) antibody and anti-HLA-class II antibody, or anti-CD4 antibody and anti-CD8 antibody (DAKO).
(§4) The percentage of specific cytotoxicity was determined by calculating the percentage of specific ^51Cr-release by the following formula: {(cpm of the test sample release−cpm of the spontaneous release)/(cpm of the maximum release−cpm of the spontaneous release)}×100. Spontaneous release was determined by incubating the target cells alone in the absence of effectors, and the maximum release was obtained by incubating the targets with 1N HCl. All determinants were done in duplicate, and the standard errors of the means were consistently below 10% of the value of the mean.

[3] = system: TISI cells (HLA-A24/24)
Description: as §3, §4

[4] = system: HCT116
Description: as §1, §2

[5] = system: WiDR cells
Description: as §3

[6] = system: SNU-C4
Description: as §1, §2

[7] = system: RNF43; test: Suppression of RNF43 expression by antisense S-oligonucleotide (semi-quantitative RT-PCR), LoVo cells; assay type: cell-based, human; settings: 12 hours after transfection
Description: Total RNA was extracted with Qiagen RNeasy kit (Qiagen) or Trizol reagent (Life Technologies) according to the manufacturers' protocols. Ten-microgram aliquots of total RNA were reversely transcribed for single-stranded cDNAs using poly dT12-18 primer (Amersham Pharmacia Biotech) with Superscript II reverse transcriptase (Life Technologies). Each single-stranded cDNA preparation was diluted for subsequent PCR amplification by standard RT-PCR experiments carried out in 20 μl volumes of PCR buffer (TaKaRa). Amplification was conducted under following conditions: denaturing for 4 min at 94° C., followed by 20 (for GAPDH), 35 (for CXADRL1), 30 (for GCUD1), 30 (for RNF43) cycles of 94° C. for 30 s, 56° C. for 30 s, and 72° C. for 45 s, in GeneAmp PCR system 9700 (Perkin-Elmer, Foster City, Calif.). Primer sequences were; for GAPDH: forward, 5′-[…] (SEQ ID NO: 7) and reverse, 5′-[…] (SEQ ID NO: 8); for CXADRL1: forward, 5′-[…] (SEQ ID NO: 9) and reverse: 5′-TATAAACCAG CTGAGTCCAGAG (SEQ ID NO: 10); for GCUD1 forward: 5′-[…] (SEQ ID NO: 11) reverse: 5′-[…] (SEQ ID NO: 12), for RNF43 forward; 5′-[…]-3′ (SEQ ID NO: 13) and reverse; 5′-[…]-3′ (SEQ ID NO: 14).
Cells plated onto 10-cm dishes (2×10^5 cells/dish) were transfected either with plasmid, or synthetic S-oligonucleotides of CXADRL1, GCUD1, or RNF43 using LIPOFECTIN Reagent (GIBCO BRL). […]

[8] = system: LoVo colon cancer cells; test: MTT assay after transfection of S-oligonucleotides, LoVo; assay type: cell-based, human; settings: six days after transfection
Description: Cells plated onto 10-cm dishes (2×10^5 cells/dish) were transfected either with plasmid, or synthetic S-oligonucleotides of CXADRL1, GCUD1, or RNF43 using LIPOFECTIN Reagent (GIBCO BRL). Then the cells were cultured with the addition of an appropriate concentration of geneticin for six to twelve days. The cells were then fixed with 100% methanol and stained by Giemsa solution. Sequences of the S-oligonucleotides were as follows:
Cells plated at a density of 5×10^5 cells/100 mm dish were transfected in triplicate with sense or antisense S-oligonucleotides designated to suppress the expression of CXADRL1, GCUD1, or RNF43. […] Subsequently, the cells were lysed by the addition of 1 ml of 0.01 N HCl/10% SDS and the absorbance of lysates was measured with ELISA plate reader at a test wavelength of 570 nm (reference, 630 nm). The cell viability was represented by the absorbance compared to that of control cells.

Which results are given for NSQPVWLCL [RNF43-721, NSQPVWLCL]?
Cytotoxic activity of CTL clone on WiDR [1]: potent cytotoxic activity; Cytotoxic activity of CTL clone on HT29 [2]: potent cytotoxic activity; Cytotoxic activity of CTL clone on irrelevant peptide pulsed TISI [3]: did not show any cytotoxic activity; Cytotoxicity of CTL lines (9mer) ×2 Pep(+) [3]: 26%; Cytotoxicity of CTL lines (9mer) ×2 Pep(−) [3]: 0%; Cytotoxicity of CTL lines (9mer) ×20 Pep(+) [3]: 68%; Cytotoxicity of CTL lines (9mer) ×20 Pep(−) [3]: 0%; Cytotoxic activity of CTL clone on HCT116 [4]: did not show any cytotoxic activity; Cytotoxicity of CTL clone on WiDR with anti-HLA-Class I, CD3, and CD8 antibodies [5]: significantly inhibited; Cytotoxic activity of CTL clone against SNU-C4 [6]: did not show any cytotoxic activity

“5′-ACCACTCATGCTACCA-3′ (phosphorothioate, further chemistry not given here) [RNF43-AS1, antisense S-oligonucleotide]” was tested. Which “Expression of RNF43 compared to control S-oligonucleotides (RNF43-S1)” value [7] did it give?
The value was “significantly suppressed”.

And the “Number of surviving cells compared with RNF43-S1” value [8]?
Its value is “significantly fewer”.
